PubChem BioAssay (NCI)
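Cells were grown in 96-well plates and exposed to each compound for 48 hours at five concentrations; endpoints were interpolated linearly between bracketing concentrations, or set to the highest concentration if not reached. GI50: concentration for 50% inhibition of growth. Definition used: TGI = concentration required for complete inhibition of growth.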

How the values were obtained:
Assay in all cases: growth of human tumour cells (NCI), 48 h
786-0 renal = tested on: 786-0 renal
A498 renal = tested on: A498 renal
A549 NSCLC = tested on: A549 NSCLC
ACHN renal = tested on: ACHN renal
CAKI-1 renal = tested on: CAKI-1 renal
CCRF-CEM leukemia = tested on: CCRF-CEM leukemia
COLO 205 colon = tested on: COLO 205 colon
DLD-1 colon = tested on: DLD-1 colon
DMS 114 small cell lung = tested on: DMS 114 small cell lung
DMS 273 small cell lung = tested on: DMS 273 small cell lung
EKVX NSCLC = tested on: EKVX NSCLC
HCC-2998 colon = tested on: HCC-2998 colon
HCT-116 colon = tested on: HCT-116 colon
HCT-15 colon = tested on: HCT-15 colon
HL-60(TB) leukemia = tested on: HL-60(TB) leukemia
HOP-18 NSCLC = tested on: HOP-18 NSCLC
HOP-62 NSCLC = tested on: HOP-62 NSCLC
HOP-92 NSCLC = tested on: HOP-92 NSCLC
HT29 colon = tested on: HT29 colon
IGROV1 ovarian = tested on: IGROV1 ovarian
K-562 leukemia = tested on: K-562 leukemia
KM20L2 colon = tested on: KM20L2 colon
LOX IMVI melanoma = tested on: LOX IMVI melanoma
LXFL 529 NSCLC = tested on: LXFL 529 NSCLC
M14 melanoma = tested on: M14 melanoma
MALME-3M melanoma = tested on: MALME-3M melanoma
MOLT-4 leukemia = tested on: MOLT-4 leukemia
NCI-H226 lung = tested on: NCI-H226 lung
NCI-H23 lung = tested on: NCI-H23 lung
NCI-H460 lung = tested on: NCI-H460 lung
OVCAR-3 ovarian = tested on: OVCAR-3 ovarian
OVCAR-4 ovarian = tested on: OVCAR-4 ovarian
OVCAR-5 ovarian = tested on: OVCAR-5 ovarian
OVCAR-8 ovarian = tested on: OVCAR-8 ovarian
RPMI-8226 leukemia = tested on: RPMI-8226 leukemia
RXF 393 renal = tested on: RXF 393 renal
RXF-631 renal = tested on: RXF-631 renal
SF-268 CNS = tested on: SF-268 CNS
SF-295 CNS = tested on: SF-295 CNS
SF-539 CNS = tested on: SF-539 CNS
SK-MEL-2 melanoma = tested on: SK-MEL-2 melanoma
SK-MEL-28 melanoma = tested on: SK-MEL-28 melanoma
SK-MEL-5 melanoma = tested on: SK-MEL-5 melanoma
SN12C renal = tested on: SN12C renal
SNB-19 CNS = tested on: SNB-19 CNS
SNB-75 CNS = tested on: SNB-75 CNS
SNB-78 CNS = tested on: SNB-78 CNS
SR leukemia = tested on: SR leukemia
SW-620 colon = tested on: SW-620 colon
UACC-257 melanoma = tested on: UACC-257 melanoma
UACC-62 melanoma = tested on: UACC-62 melanoma
UO-31 renal = tested on: UO-31 renal

SMILES: CC[O-].CC[O-].COc1ccc(C(=O)[CH-]C(C)=O)cc1OC.COc1ccc(C(=O)[CH-]C(C)=O)cc1OC.[Ti+4]
- GI50 (786-0 renal): 48 µM
- TGI (786-0 renal): > 100 µM
- GI50 (A498 renal): 29.6 µM
- TGI (A498 renal): 75.2 µM
- GI50 (A549 NSCLC): > 100 µM
- TGI (A549 NSCLC): > 100 µM
- GI50 (ACHN renal): 35.9 µM
- TGI (ACHN renal): > 100 µM
- GI50 (CAKI-1 renal): 33 µM
- TGI (CAKI-1 renal): 96.1 µM
- GI50 (CCRF-CEM leukemia): 27.8 µM
- TGI (CCRF-CEM leukemia): > 100 µM
- GI50 (COLO 205 colon): > 100 µM
- TGI (COLO 205 colon): > 100 µM
- GI50 (DLD-1 colon): 77.5 µM
- TGI (DLD-1 colon): > 100 µM
- GI50 (DMS 114 small cell lung): > 100 µM
- TGI (DMS 114 small cell lung): > 100 µM
- GI50 (DMS 273 small cell lung): 44.4 µM
- TGI (DMS 273 small cell lung): > 100 µM
- GI50 (EKVX NSCLC): 24.6 µM
- TGI (EKVX NSCLC): 79.6 µM
- GI50 (HCC-2998 colon): > 100 µM
- TGI (HCC-2998 colon): > 100 µM
- GI50 (HCT-116 colon): > 100 µM
- TGI (HCT-116 colon): > 100 µM
- GI50 (HCT-15 colon): 90.1 µM
- TGI (HCT-15 colon): > 100 µM
- GI50 (HL-60(TB) leukemia): 43.3 µM
- TGI (HL-60(TB) leukemia): > 100 µM
- GI50 (HOP-18 NSCLC): 29.8 µM
- TGI (HOP-18 NSCLC): > 100 µM
- GI50 (HOP-62 NSCLC): 46.2 µM
- TGI (HOP-62 NSCLC): > 100 µM
- GI50 (HOP-92 NSCLC): 32.1 µM
- TGI (HOP-92 NSCLC): 65.9 µM
- GI50 (HT29 colon): 47.8 µM
- TGI (HT29 colon): > 100 µM
- GI50 (IGROV1 ovarian): 54.8 µM
- TGI (IGROV1 ovarian): > 100 µM
- GI50 (K-562 leukemia): > 100 µM
- TGI (K-562 leukemia): > 100 µM
- GI50 (KM20L2 colon): 53.1 µM
- TGI (KM20L2 colon): > 100 µM
- GI50 (LOX IMVI melanoma): 80.3 µM
- TGI (LOX IMVI melanoma): > 100 µM
- GI50 (LXFL 529 NSCLC): 38.7 µM
- TGI (LXFL 529 NSCLC): > 100 µM
- GI50 (M14 melanoma): 83.8 µM
- TGI (M14 melanoma): > 100 µM
- GI50 (MALME-3M melanoma): 35.1 µM
- TGI (MALME-3M melanoma): 86.6 µM
- GI50 (MOLT-4 leukemia): 35.4 µM
- TGI (MOLT-4 leukemia): > 100 µM
- GI50 (NCI-H226 lung): > 100 µM
- TGI (NCI-H226 lung): > 100 µM
- GI50 (NCI-H23 lung): > 100 µM
- TGI (NCI-H23 lung): > 100 µM
- GI50 (NCI-H460 lung): 55.8 µM
- TGI (NCI-H460 lung): > 100 µM
- GI50 (OVCAR-3 ovarian): 46.4 µM
- TGI (OVCAR-3 ovarian): > 100 µM
- GI50 (OVCAR-4 ovarian): > 100 µM
- TGI (OVCAR-4 ovarian): > 100 µM
- GI50 (OVCAR-5 ovarian): 53.8 µM
- TGI (OVCAR-5 ovarian): > 100 µM
- GI50 (OVCAR-8 ovarian): 81.9 µM
- TGI (OVCAR-8 ovarian): > 100 µM
- GI50 (RPMI-8226 leukemia): 44.6 µM
- TGI (RPMI-8226 leukemia): > 100 µM
- GI50 (RXF 393 renal): 34.1 µM
- TGI (RXF 393 renal): 99.7 µM
- GI50 (RXF-631 renal): 49.4 µM
- TGI (RXF-631 renal): > 100 µM
- GI50 (SF-268 CNS): > 100 µM
- TGI (SF-268 CNS): > 100 µM
- GI50 (SF-295 CNS): 33.9 µM
- TGI (SF-295 CNS): > 100 µM
- GI50 (SF-539 CNS): 38.9 µM
- TGI (SF-539 CNS): > 100 µM
- GI50 (SK-MEL-2 melanoma): 78.3 µM
- TGI (SK-MEL-2 melanoma): > 100 µM
- GI50 (SK-MEL-28 melanoma): > 100 µM
- TGI (SK-MEL-28 melanoma): > 100 µM
- GI50 (SK-MEL-5 melanoma): > 100 µM
- TGI (SK-MEL-5 melanoma): > 100 µM
- GI50 (SN12C renal): > 100 µM
- TGI (SN12C renal): > 100 µM
- GI50 (SNB-19 CNS): 73 µM
- TGI (SNB-19 CNS): > 100 µM
- GI50 (SNB-75 CNS): 26.9 µM
- TGI (SNB-75 CNS): > 100 µM
- GI50 (SNB-78 CNS): 72.2 µM
- TGI (SNB-78 CNS): > 100 µM
- GI50 (SR leukemia): 31.1 µM
- TGI (SR leukemia): 83.4 µM
- GI50 (SW-620 colon): > 100 µM
- TGI (SW-620 colon): > 100 µM
- GI50 (UACC-257 melanoma): > 100 µM
- TGI (UACC-257 melanoma): > 100 µM
- GI50 (UACC-62 melanoma): 56.5 µM
- TGI (UACC-62 melanoma): > 100 µM
- GI50 (UO-31 renal): 11.7 µM
- TGI (UO-31 renal): 49.7 µM
